# Results reported in US20210330611A1, “THERAPY FOR NEUROLOGICAL DISEASES/DISORDERS” (priority 2020, published 2021).
# Structures can show the parent of a compound that is named as a salt. Where two headings read alike, the source gives them in different places.
# Experiments:
# [1] = tested on: fibrin- and LPS-induced microglia activation; test: cells; format: cell-based, rat
# [2] = tested on: primary rat microglia; test: Cell toxicity (dead cells, size <150 μm2) in coated fibrin (cFib) assay;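 note: share of dead cells sized under 150 µm2 at 10 µM in fibrin-stimulated microglia HTS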
# [3] = tested on: LPS-induced microglia activation; test: Image-based assay of LPS-induced microglia activation (HTS and dose response); format: cell-based, rat; settings: for inhibition at 10 µM: Rattus norvegicus, Microglia, read-out: LPS % inhibition
# [4] = tested on: primary rat microglia; test: Cell toxicity (dead cells, size <150 μm2) in LPS assay
# [5] = tested on: fibrin-induced microglia activation; test: Image-based assay of fibrin-induced microglia activation (HTS and dose response); format: cell-based, rat; settings: for inhibition at 10 µM: Rattus norvegicus, Microglia, read-out: Fibrin % inhibition
# [6] = quadrant by fibrin and LPS inhibition in HTS of 1907 compounds
# [7] = primary microglia HTS, fibrin stimulation, toxicity = cell size <150 μm2
# [8] = 48 h, primary microglia HTS, LPS stimulation, activation = cell size >800 μm2
# [9] = primary microglia HTS, LPS stimulation, toxicity = cell size <150 μm2
# [10] = primary microglia HTS, fibrin stimulation, activation = cell size >800 μm2
# [11] = HTS of 1907 compounds, quadrant by fibrin and LPS inhibition
# [12] = primary microglia HTS, 10 μM, fibrin assay, cell size <150 μm^2 as marker of toxicity
# [13] = primary microglia HTS, 10 μM, LPS-stimulated, cell size >800 μm^2 as marker of activation
# [14] = primary microglia HTS, 10 μM, LPS assay, cell size <150 μm^2 as marker of toxicity
# [15] = primary microglia HTS, 10 μM, fibrin-stimulated, cell size >800 μm^2 as marker of activation
# [16] = primary microglia HTS, fibrin stimulation, decreased size (<150 μm^2) as marker of toxicity
# [17] = primary microglia HTS, LPS stimulation, decreased size (<150 μm^2) as marker of toxicity
# [18] = primary microglia HTS, fibrin stimulation, increased cell size (>800 μm^2) as marker of activation
# [19] = primary HTS, 10 μM, fibrin assay, dead cells size <150 μm2
# [20] = primary HTS, 10 μM, LPS-stimulated primary microglia
# [21] = primary HTS, 10 μM, LPS assay, dead cells size <150 μm2
# [22] = primary HTS, 10 μM, fibrin-stimulated primary microglia
smiles,measurement,setting,value
Nc1nc(O)c2ncn(COC(CO)CO)c2n1 [Ganciclovir],Quadrant (FIG. 5b),[1]; [6],Q4
same,Fibrin % cell toxicity,[2]; [7],0%
same,inhibition at 10 µM,[3]; [8],13%
same,LPS % cell toxicity,[4]; [9],0%
same,inhibition at 10 µM,[5]; [10],-2%
C[C@H](CCC(=O)O)[C@H]1CC[C@H]2[C@@H]3[C@@H](O)C[C@@H]4C[C@H](O)CC[C@]4(C)[C@H]3CC[C@]12C [Ursodiol],Quadrant (FIG. 5b),[1]; [11],Q4
same,Fibrin % cell toxicity,[2]; [12],0%
same,LPS % inhibition,[3]; [13],18%
same,LPS % cell toxicity,[4]; [14],0%
same,Fibrin % inhibition,[5]; [15],−21%
O=C(NCC1CCCCN1)c1cc(OCC(F)(F)F)ccc1OCC(F)(F)F (stereo not drawn) [Flecainide],Quadrant (FIG. 5b),[1]; [6],Q4
same,Fibrin % cell toxicity,[2]; [7],0%
same,inhibition at 10 µM,[3]; [8],5%
same,LPS % cell toxicity,[4]; [9],0%
same,inhibition at 10 µM,[5]; [10],-35%
Cc1ncc(CNC(=O)N(CCCl)N=O)c(N)n1 [Nimustine],Quadrant (FIG. 5b),[1]; [6],Q4
same,Fibrin % cell toxicity,[2]; [16],1%
same,inhibition at 10 µM,"[3]; 48 h, primary microglia HTS, LPS stimulation, increased cell size (>800 μm^2) as marker of activation",10%
same,LPS % cell toxicity,[4]; [17],0%
same,inhibition at 10 µM,[5]; [18],-1%
Oc1noc2c1CCNC2 [Gaboxadol],Quadrant (FIG. 5b),[1]; [6],Q4
same,Fibrin % cell toxicity,[2]; [7],0%
same,inhibition at 10 µM,[3]; [8],3%
same,LPS % cell toxicity,[4]; [9],0%
same,inhibition at 10 µM,[5]; [10],-43%
CCS(=O)(=O)CCn1c([N+](=O)[O-])cnc1C [Tinidazole],Quadrant (FIG. 5b),[1]; [11],Q4
same,Fibrin % cell toxicity,[2]; [12],0%
same,inhibition at 10 µM,[3]; [13],14%
same,LPS % cell toxicity,[4]; [14],1%
same,inhibition at 10 µM,[5]; [15],2%
COc1ccc(CN2CCNCC2)c(OC)c1OC [Trimetazidine],Quadrant (FIG. 5b),[1]; [11],Q4
same,Fibrin % cell toxicity,[2]; [12],1%
same,inhibition at 10 µM,[3]; [13],1%
same,LPS % cell toxicity,[4]; [14],0%
same,inhibition at 10 µM,[5]; [15],-18%
NNC(=O)c1ccncc1 [Isoniazid],Quadrant (FIG. 5b),[1]; [6],Q4
same,Fibrin % cell toxicity,[2]; [7],1%
same,inhibition at 10 µM,[3]; [8],19%
same,LPS % cell toxicity,[4]; [9],0%
same,inhibition at 10 µM,[5]; [10],-29%
"CCN(CC)CCNC(=O)COc1ccc(OC)cc1 [Mefexamide, Mefexamide Hydrochloride]",Quadrant (FIG. 5b),[1]; [6],Q4
same,Fibrin % cell toxicity,[2]; [16],0%
same,LPS % inhibition,"[3]; primary microglia HTS, LPS stimulation, increased cell size (>800 μm^2) as marker of activation",−2%
same,LPS % cell toxicity,[4]; [17],0%
same,Fibrin % inhibition,[5]; [18],−13%
CO/N=C(\C(=O)N[C@@H]1C(=O)N2C(C(=O)O)=C(C[N+]3(C)CCCC3)CS[C@H]12)c1csc(N)n1 [Cefepime Hydrochloride],Quadrant (FIG. 5b),"[1]; primary HTS, 10 μM",Q4
same,Fibrin % cell toxicity,[2]; [19],1%
same,inhibition at 10 µM,[3]; [20],16%
same,LPS % cell toxicity,[4]; [21],0%
same,inhibition at 10 µM,[5]; [22],7%
N[C@H]1CONC1=O [Levcycloserine],Quadrant (FIG. 5b),[1]; [6],Q4
same,Fibrin % cell toxicity,[2]; [7],1%
same,inhibition at 10 µM,[3]; [8],12%
same,LPS % cell toxicity,[4]; [9],0%
same,inhibition at 10 µM,[5]; [10],2%
COc1cc(/C=C/C(N)=O)cc(OC)c1OC [Cintriamide],Quadrant (FIG. 5b),"[1]; primary HTS, 10 μM",Q4
same,Fibrin % cell toxicity,[2]; [19],1%
same,inhibition at 10 µM,[3]; [20],15%
same,LPS % cell toxicity,[4]; [21],0%
same,inhibition at 10 µM,[5]; [22],-2%
